# Experimental data taken from patent US8304419B2, “Chemical compounds” (priority 2007, dated 2012).
# pIC50: −log10 of the molar value. Counter-ions that a name gives are not always drawn.
# System: HIV wild type (WTRVA)
# Assay: HeLa cell assay, wild type virus (WTRVA)
# Type: cell-based, HIV-1
# Design: scale not given here
# Details: Human immunodeficiency virus 1, HeLa, HeLa cell assay; read-out: IC50 against WTRVA
row,SMILES,pIC50
1,"N#Cc1cc(CC2CC2)cc(Oc2c(Cl)ccc(CNC(=O)c3[nH]cnc3Cl)c2F)c1 [Example 157, 4-chloro-N-[(4-chloro-3-{[3-cyano-5-(cyclopropylmethyl)phenyl]oxy}-2-fluorophenyl)methyl]-1H-imidazole-5-carboxamide]",> 8.00
2,"N#Cc1cc(Cl)cc(Oc2c(Cl)ccc(Cn3cnc4cc[nH]c4c3=O)c2F)c1 [Example 369, 3-chloro-5-({6-chloro-2-fluoro-3-[(4-oxo-4,5-dihydro-3H-pyrrolo[3,2-d]pyrimidin-3-yl)methyl]phenyl}oxy)benzonitrile]",> 8.00
3,"N#Cc1cc(Cl)cc(Oc2c(Br)ccc(CNC(=O)c3[nH]c(CO)nc3Cl)c2F)c1 [Example 241, N-({4-bromo-3-[(3-chloro-5-cyanophenyl)oxy]-2-fluorophenyl}methyl)-4-chloro-2-(hydroxymethyl)-1H-imidazole-5-carboxamide]",> 8.00
4,"N#Cc1cc(Cl)cc(Oc2c(Cl)ccc(CNC(=O)c3[nH]ccc3Cl)c2F)c1 [Example 128, 3-chloro-N-({4-chloro-3-[(3-chloro-5-cyanophenyl)oxy]-2-fluorophenyl}methyl)-1H-pyrrole-2-carboxamide]",> 8.00
5,"CC#Cc1cc(C#N)cc(Oc2c(Cl)ccc(CNC(=O)c3[nH]cnc3Cl)c2F)c1 [Example 317, 4-chloro-N-[(4-chloro-3-{[3-cyano-5-(1-propyn-1-yl)phenyl]oxy}-2-fluorophenyl)methyl]-1H-imidazole-5-carboxamide]",> 8.00
6,"N#Cc1cc(Oc2c(Cl)ccc(CNC(=O)c3[nH]c(N)nc3Cl)c2F)cc(C(F)F)c1 [Example 327, 2-amino-4-chloro-N-[(4-chloro-3-{[3-cyano-5-(difluoromethyl)phenyl]oxy}-2-fluorophenyl)methyl]-1H-imidazole-5-carboxamide trifluoroacetate]",> 8.00
7,"C=CCc1cc(C#N)cc(Oc2c(Cl)ccc(CNC(=O)c3[nH]c(C)nc3Cl)c2F)c1 [Example 248, 4-chloro-N-[(4-chloro-3-{[3-cyano-5-(2-propen-1-yl)phenyl]oxy}-2-fluorophenyl)methyl]-2-methyl-1H-imidazole-5-carboxamide trifluoroacetate]",> 8.00
8,"N#Cc1cc(Br)cc(Oc2c(Cl)ccc(CNC(=O)c3[nH]cnc3Cl)c2F)c1 [Example 150, N-({3-[(3-bromo-5-cyanophenyl)oxy]-4-chloro-2-fluorophenyl}methyl)-4-chloro-1H-imidazole-5-carboxamide]",> 8.00
9,"CCc1cc(C#N)cc(Oc2c(Cl)ccc(CNC(=O)c3[nH]c(C)nc3Br)c2F)c1 [Example 149, 4-bromo-N-({4-chloro-3-[(3-cyano-5-ethylphenyl)oxy]-2-fluorophenyl}methyl)-2-methyl-1H-imidazole-5-carboxamide]",> 8.00

# Same assay, conditions: Human immunodeficiency virus 1, HeLa, HeLa-CD4-LTR-β-gal cells, wild type virus; read-out: WTRVA activity level
row,SMILES,pIC50
1,"N#Cc1cc(Cl)cc(Oc2c(Cl)ccc(CNC(=O)c3cc4cc([N+](=O)[O-])ccc4o3)c2F)c1 [Example 50, N-({4-chloro-3-[(3-chloro-5-cyanophenyl)oxy]-2-fluorophenyl}methyl)-5-nitro-1-benzofuran-2-carboxamide trifluoroacetate]",6.00 to 8.00
2,"N#Cc1cc(Cl)cc(Oc2c(Cl)ccc(CNC(=O)c3[nH]c4cc(O)ccc4c3Br)c2F)c1 [Example 61, 3-bromo-N-({4-chloro-3-[(3-chloro-5-cyanophenyl)oxy]-2-fluorophenyl}methyl)-6-hydroxy-1H-indole-2-carboxamide trifluoroacetate]",> 8.00
3,"N#Cc1cc(Cl)cc(Oc2c(Cl)ccc(CNC(=O)c3[nH]ccc3Cl)c2F)c1 [Example 128, 3-chloro-N-({4-chloro-3-[(3-chloro-5-cyanophenyl)oxy]-2-fluorophenyl}methyl)-1H-pyrrole-2-carboxamide]",> 8.00
4,"COc1ccc2cc(C(=O)NCc3ccc(Cl)c(Oc4cc(Cl)cc(C#N)c4)c3)[nH]c2c1 [Example 7, N-({4-chloro-3-[(3-chloro-5-cyanophenyl)oxy]phenyl}methyl)-6-(methyloxy)-1H-indole-2-carboxamide]",6.00 to 8.00
5,"N#Cc1cc(Cl)cc(Oc2c(Cl)ccc(CNC(=O)c3cc4cc(OC(F)(F)F)ccc4[nH]3)c2F)c1 [Example 27, N-({4-chloro-3-[(3-chloro-5-cyanophenyl)oxy]-2-fluorophenyl}methyl)-5-[(trifluoromethyl)oxy]-1H-indole-2-carboxamide]",6.00 to 8.00
6,"N#Cc1cc(Cl)cc(Oc2c(Cl)ccc(CNC(=O)c3snnc3-c3ccccc3)c2F)c1 [Example 99, N-({4-chloro-3-[(3-chloro-5-cyanophenyl)oxy]-2-fluorophenyl}methyl)-4-phenyl-1,2,3-thiadiazole-5-carboxamide]",< 6.00
7,"CC(=O)Nc1ccc2[nH]c(C(=O)NCc3ccc(Cl)c(Oc4cc(Cl)cc(C#N)c4)c3F)cc2c1 [Example 121, 5-(acetylamino)-N-({4-chloro-3-[(3-chloro-5-cyanophenyl)oxy]-2-fluorophenyl}methyl)-1H-indole-2-carboxamide]",> 8.00
8,"Cc1nn(-c2ccccc2)nc1C(=O)NCc1ccc(Cl)c(Oc2cc(Cl)cc(C#N)c2)c1F [Example 96, N-({4-chloro-3-[(3-chloro-5-cyanophenyl)oxy]-2-fluorophenyl}methyl)-5-methyl-2-phenyl-2H-1,2,3-triazole-4-carboxamide trifluoroacetate]",6.00 to 8.00
9,"CC(=O)NCc1ccc2cc(C(=O)NCc3ccc(Cl)c(Oc4cc(Cl)cc(C#N)c4)c3F)[nH]c2c1 [Example 74, 6-[(acetylamino)methyl]-N-({4-chloro-3-[(3-chloro-5-cyanophenyl)oxy]-2-fluorophenyl}methyl)-1H-indole-2-carboxamide trifluoroacetate]",> 8.00
10,"COc1ccc2[nH]c(C(=O)NCc3ccc(Cl)c(Oc4cc(Cl)cc(C#N)c4)c3F)cc2c1 [Example 20, N-({4-chloro-3-[(3-chloro-5-cyanophenyl)oxy]-2-fluorophenyl}methyl)-5-(methyloxy)-1H-indole-2-carboxamide]",6.00 to 8.00
11,"N#Cc1cc(Cl)cc(Oc2c(Cl)ccc(CNC(=O)c3c[nH]cn3)c2F)c1 [Example 84, N-({4-chloro-3-[(3-chloro-5-cyanophenyl)oxy]-2-fluorophenyl}methyl)-1H-imidazole-4-carboxamide trifluoroacetate]",> 8.00
12,"N#Cc1cc(Cl)cc(Oc2c(Cl)ccc(CNC(=O)c3[nH]c4ccccc4c3Cl)c2F)c1 [Example 75, 3-chloro-N-({4-chloro-3-[(3-chloro-5-cyanophenyl)oxy]-2-fluorophenyl}methyl)-1H-indole-2-carboxamide trifluoroacetate]",> 8.00
13,"N#Cc1cc(Cl)cc(Oc2c(Cl)ccc(CNC(=O)c3cc4cc(O)ccc4[nH]3)c2F)c1 [Example 26, N-({4-chloro-3-[(3-chloro-5-cyanophenyl)oxy]-2-fluorophenyl}methyl)-5-hydroxy-1H-indole-2-carboxamide]",> 8.00
14,"CSc1ncc(Cl)c(C(=O)NCc2ccc(Cl)c(Oc3cc(Cl)cc(C#N)c3)c2F)n1 [Example 101, 5-chloro-N-({4-chloro-3-[(3-chloro-5-cyanophenyl)oxy]-2-fluorophenyl}methyl)-2-(methylthio)-4-pyrimidinecarboxamide]",6.00 to 8.00
15,"Cc1cccc2cc(C(=O)NCc3ccc(Cl)c(Oc4cc(Cl)cc(C#N)c4)c3F)[nH]c12 [Example 108, N-({4-chloro-3-[(3-chloro-5-cyanophenyl)oxy]-2-fluorophenyl}methyl)-7-methyl-1H-indole-2-carboxamide]",6.00 to 8.00
16,"N#Cc1cc(Cl)cc(Oc2c(Cl)ccc(CNC(=O)c3cc4cc(NC(=O)c5cccnc5)ccc4[nH]3)c2F)c1 [Example 115, N-({4-chloro-3-[(3-chloro-5-cyanophenyl)oxy]-2-fluorophenyl}methyl)-5-[(3-pyridinylcarbonyl)amino]-1H-indole-2-carboxamide]",> 8.00
17,"Cc1nc2ccccn2c1C(=O)NCc1ccc(Cl)c(Oc2cc(Cl)cc(C#N)c2)c1F [Example 97, N-({4-chloro-3-[(3-chloro-5-cyanophenyl)oxy]-2-fluorophenyl}methyl)-2-methylimidazo[1,2-a]pyridine-3-carboxamide trifluoroacetate]",> 8.00
18,"N#Cc1cc(Cl)cc(Oc2c(Cl)ccc(CNC(=O)c3cc4ccc(Cl)cc4[nH]3)c2F)c1 [Example 110, 6-chloro-N-({4-chloro-3-[(3-chloro-5-cyanophenyl)oxy]-2-fluorophenyl}methyl)-1H-indole-2-carboxamide]",6.00 to 8.00
19,"Cc1ccc2[nH]c(C(=O)NCc3ccc(Cl)c(Oc4cc(Cl)cc(C#N)c4)c3F)c(C)c2c1 [Example 52, N-({4-chloro-3-[(3-chloro-5-cyanophenyl)oxy]-2-fluorophenyl}methyl)-3,5-dimethyl-1H-indole-2-carboxamide trifluoroacetate]",6.00 to 8.00
20,"N#Cc1cc(Cl)cc(Oc2c(Cl)ccc(CNC(=O)c3cc4cccc(O)c4[nH]3)c2F)c1 [Example 32, N-({4-chloro-3-[(3-chloro-5-cyanophenyl)oxy]-2-fluorophenyl}methyl)-7-hydroxy-1H-indole-2-carboxamide]",6.00 to 8.00
21,"N#Cc1cc(Cl)cc(Oc2c(Cl)ccc(CNC(=O)c3cc4ccc(OCc5ccccc5)cc4[nH]3)c2F)c1 [Example 43, N-({4-chloro-3-[(3-chloro-5-cyanophenyl)oxy]-2-fluorophenyl}methyl)-6-[(phenylmethyl)oxy]-1H-indole-2-carboxamide]",6.00 to 8.00
22,"N#Cc1cc(Cl)cc(Oc2c(Cl)ccc(CNC(=O)c3cc4cc(N)ccc4[nH]3)c2F)c1 [Example 111, 5-amino-N-({4-chloro-3-[(3-chloro-5-cyanophenyl)oxy]-2-fluorophenyl}methyl)-1H-indole-2-carboxamide trifluoroacetate]",> 8.00
23,"Cn1c(C(=O)NCc2ccc(Cl)c(Oc3cc(Cl)cc(C#N)c3)c2F)cc2ccccc21 [Example 45, N-({4-chloro-3-[(3-chloro-5-cyanophenyl)oxy]-2-fluorophenyl}methyl)-1-methyl-1H-indole-2-carboxamide]",6.00 to 8.00
24,"N#Cc1cc(Cl)cc(Oc2c(Cl)ccc(CNC(=O)c3[nH]c4ccccc4c3Br)c2F)c1 [Example 53, 3-bromo-N-({4-chloro-3-[(3-chloro-5-cyanophenyl)oxy]-2-fluorophenyl}methyl)-1H-indole-2-carboxamide]",6.00 to 8.00
25,"COc1cccc2[nH]c(C(=O)NCc3ccc(Cl)c(Oc4cc(Cl)cc(C#N)c4)c3F)cc12 [Example 34, N-({4-chloro-3-[(3-chloro-5-cyanophenyl)oxy]-2-fluorophenyl}methyl)-4-(methyloxy)-1H-indole-2-carboxamide]",> 8.00
